Laboratory results taken from patent US20090239836A1, “Multifunctional Ophthalmic Compositions” (priority 2008, published 2009).

Experiment: Solubility of compound having Formula V in various media
Type: physicochemical
Description: For example, the solubility of the compound having Formula V in some embodiments of the present composition is compared to that in water in Table 1.

Cc1ccc2c(NCC(O)(CC(C)(C)c3cc(F)cc4c3OCC4)C(F)(F)F)cccc2n1 (centres unmarked) [Compound Having Formula V] showed a solubility (Medium: Water, pH 7) of 0.2 µg/mL, a solubility (aqueous with cosolvent or surfactant or cyclodextrin, Medium: 1% Polysorbate 80) of 12 µg/mL and a solubility (aqueous with cosolvent or surfactant or cyclodextrin, Medium: 10% PEG-400/1% polysorbate 80 (a composition of the present invention)) of 12 µg/mL. It also gave a solubility (aqueous with cosolvent or surfactant or cyclodextrin, Medium: 25% PEG-40/1% polysorbate 80 (a composition of the present invention)) of 18 µg/mL and a solubility (organic solvent or mixture, Medium: PEG-400) of 5.6 µg/mL.
